Laboratory results from article PMC10079954, “Rational design of phase separating peptides based on phase separating protein sequence of p53” (Scientific Reports, 2023).

Assays:
[1] = molecular target: C-terminal peptide of p53; assay: Affinity of DPp53C1 to the C-terminal peptide of p53; assay type: binding
[2] = Single-molecule fluorescence tracking (HILO) of labeled molecules in their droplets; assay type: physicochemical; conditions: Alexa488-labeled peptide 10–100 pM in 0.9 mM non-labeled peptide droplets; 25 mM HEPES, 0.5 mM EDTA, 45 mM NaCl, 150 mg/mL dextran, pH 7.0; linear fit of MSD (4D slope)
Protocol: We quantitatively characterized the liquid droplet properties of the four designed peptides and compared them with those of p53. We measured the fusion of the designed peptide droplets in the solution used for p53 droplets (Supplementary Fig. S4). In the presence of 45 mM NaCl and 150 mg/mL dextran, the fusion of droplets for the four designed peptides was observed within 0.2 s, which was much faster than that for p53 (3.7 min)[8]. This gap in the fusion period implies different intrinsic dynamic properties. We measured the movement of Alexa488-labeled peptides within non-labeled peptide droplets using single-molecule fluorescence microscopy with a highly inclined and laminated optical sheet (HILO) illumination[37],[41] (Fig. 3A). […]
Single-molecule measurements were performed following the method described in our previous studies[37],[41]. An inverted fluorescence microscope (IX-73; Olympus) with a total internal reflection fluorescence unit (IX3RFAEVAW; Olympus) was used[52],[53]. […] The fluorescence collected via the objective lens was detected using an EM-CCD camera (iXon Ultra 888, Andor). […] Images were recorded at intervals of 15–154 ms after reducing the number of observable molecules in the droplets by photobleaching within one minute. […]

[3] = test system: p53 monomer (L344P) mutant; assay: Recruitment (enrichment index) of p53 monomer into designed peptide droplets; design: species or system human; conditions: 0.9–1.8 mM designed peptide, 0.1 µM Alexa488-labeled p53, 25 mM HEPES, 0.5 mM EDTA, 1 mM DTT, pH 7.0, 22 °C; ± standard error; SEM
From the text: (§1) We prepared p53 tetramer, dimer, and monomer mutants, as described previously[8],[37],[50]. For the p53 tetramer, a thermostable and cysteine-modified human p53 mutant (C124A, C135V, C141V, W146Y, C182S, V203A, R209P, C229Y, H233Y, Y234F, N235K, Y236F, T253V, N268D, C275A, C277A, and K292C) was used[50]. The dimer and monomer mutants of p53 corresponded to L344A and L344P of the tetramer sequence, respectively[8],[37]. These p53 mutants were expressed with a glutathione S-transferase (GST) tag in E. coli and purified after cleavage of the GST tag, as described previously[50],[51]. The oligomeric state of p53 mutants was confirmed using a gel filtration column (Superdex 200; GE Healthcare). p53 mutants were labeled with Atto488 (ATTO-TEC) or Alexa488 (Thermo Fisher) using maleimide chemistry and then purified using a heparin column (GE Healthcare). We prepared Alexa488-labeled FUS-MBP as described previously[37],[39].
(§2) Recruitment evaluations were performed following the method described in our previous studies[37],[41]. Solutions containing 0.9–1.8 mM designed peptides, 0.1 µM Alexa488-labeled p53 mutants or Alexa488, 25 mM HEPES, 0.5 mM EDTA, and 1 mM DTT at pH 7.0 were used. The solutions were then incubated at 22 °C for five minutes. The aforementioned microscope was used with HILO illumination. To prevent photo-bleaching of the fluorescent samples, we used a laser power of 0.15 mW. The images were acquired at 22 °C. Using the ImageJ software, we calculated the EI values of the individual droplets as follows:2 EI=Idroplet/Isolution, where Idroplet and Isolution represent the average fluorescence intensities of the individual droplets and solutions near the droplets with background substitution, respectively.

p53 tetramer = assay: Recruitment (enrichment index) of p53 tetramer into designed peptide droplets; design: species or system human; conditions: droplet interior regions, surface not included; no salt, pH 7.0
From the text: as §1, §2

[4] = test system: maltose binding protein-fused FUS (FUS-MBP); assay: Recruitment (enrichment index) of FUS-MBP into designed peptide droplets; conditions: 1 mM DPp53N-GSGS-D7, 100 nM Alexa488-labeled protein, 1 mM DTT, pH 7.0
Protocol: as §2, with “Solutions containing 0.9–1.8 mM designed peptides, 0.1 µM Alexa488-labeled p53 mutants or Alexa488, 25 mM HEPES, 0.5 mM EDTA, and 1 mM DTT at pH 7.0 were used.” left out
Fig. S10 p53 monomer is localized inside droplets of DPp53N-GSGS-D7, whereas FUS-MBP is localized in its droplet surfaces. Fluorescence images of Alexa488-labeled p53 monomer mutant (L344P) and FUS-MBP in droplet solution of non-labeled DPp53N-GSGS-D7. The solution containing 103 mM HEPES and 1 mM DTT, 100 nM Alexa488 labeled proteins, and 1 mM DPp53N-GSGS-D7 at pH 7.0 was used.
Fig. S13 Design and experimental verification of artificial PS peptides from PS protein FUS. […] (B) DIC and fluorescence images of the solution containing 4 mM FUS designed peptide and 120 mM HEPES at pH 7.0. […] (C) Fluorescence images of Alexa488-labeled FUS-MBP in non-labeled FUS-designed-peptide droplet solution. […]

In the case of DDDASQEDDD [DPp53C1], the Kd [1] is reported as 10 µM.
In the case of RRRVVQRRRRGSGSDDDDDDD [DPp53N-GSGS-D7], the “Average diffusion coefficient (D) in own droplets” value [2] is reported as 0.26 ± 0.01 μm^2/s, the “Enrichment index (EI) of p53 monomer (L344P) mutant in peptide droplets” value [3] is reported as 22.3 ± 0.7 and the “Decrease of average EI of p53 tetramer relative to p53 monomer” value (p53 tetramer) is reported as 10.5 fold. For the same sequence, the “Average EI of FUS-MBP, fold smaller than that of p53 monomer” value [4] was 2.2 fold.
